According to publication PMC11570809, “Novel N-phenyl-2-(aniline) benzamide hydrochloride salt development for colon cancer therapy” (Frontiers in Pharmacology, 2024):
Counter-ions that a name gives are not always drawn. Like-named read-outs stand apart in the source and are kept apart here.

Key:
SK-Hep-1 = assay: MTT anti-proliferation assay, SK-Hep-1; assay type: cell-based, human; settings: read-out: IC50 ± SD SK-Hep-1
RKO = assay: MTT anti-proliferation assay, RKO; assay type: cell-based, human; settings: 72 h, read-out: IC50 ± SD RKO
Experimental: The anti-proliferation activities of synthesized compounds to colon cancer cell lines were measured by the MTT (3-[4,5-dimethyl-2-thiazolyl]-2,5-diphenyl-2H-tet razolium bromide) assay. First, the cell suspension was prepared by trypsin and the corresponding medium, cells were diluted to 5 × 10^5 cells/mL, and 96-well plates were added 200 μL per well. The plates were maintained at 37°C in a humidified atmosphere containing 5% CO2 overnight. Then compounds at gradient concentrations were added to cells in the logarithmic phase to make the final concentration at 0.5, 1, 2, 4, 8, 16, and 32 μM. The cells were treated with tested compounds for 72 h, and the growth curve assay was tested in 24 h. When the time was up, 20 μL of MTT solution (5 mg/mL in PBS) was added into each well to incubate for 4 h at 37°C. Then the supernatant liquid was removed, 150 μL DMSO was added into every well to dissolve formazan crystals and read the absorbance at 570 nm by Spark microplate spectrophotometer (Tecan, Swiss). The IC50 values were analyzed by IBM SPASS Statistics 25.0 software. The data are all derived from three parallel experiments (n = 3) and expressed as mean ± SD.

HT29 xenograft = assay: HT29 nude xenograft model; assay type: in vivo, BALB/c nude mice; settings: 15 mg/kg once a day p.o., 13 days
Experimental: HT29 cells in the logarithmic growth phase were digested to a cell density of 8 × 10^6/mL, and 100 μL suspension of HT29 was injected subcutaneously in the right axilla of nude mice. The dose selection is based on previously described ([Xiaoling Hu et al., 2022]). When the average tumor volume reached about 300 mm^3, they were randomly divided into 3 groups: N53·HCl (15 mg/kg once a day, p.o.), N53 (15 mg/kg once a day, p.o.), control group. 15 mg/kg N53 and N53·HCl dissolved in normal saline containing 2.5% polyoxyethylene castor oil and 2.5% DMSO were administrated by oral medications, while the Control group was given an equal volume of blank solvent. The tumor volume was measured with a vernier caliper every other days and calculated the tumor volume according to Equation 1. After 13 days of treatment, the mice were sacrificed, the tumors were removed, the tumor weight was weighed, and the tumor growth inhibition rate was calculated. The calculation formula of tumor growth inhibition rate (TGI%) was calculated using Equation 2. The corresponding equations were as follows: Tumor volume mm^3=W^2×L/2 (1) TGI%=1−T−T0 / C−C0×100% (2)
In equations, W and L represent the width and length of the tumor respectively, T and C represent the average volume of the experiment group and control group at the end of the experiment. T0 and C0 represent […].

HepG2 = assay: MTT anti-proliferation assay, HepG2; assay type: cell-based, human; settings: read-out: IC50 ± SD HepG2
Human COX-2 = biological target: T1, Human COX-2 (Homo sapiens, UniProt P35354); assay: COX-2 inhibition assay (Human COX-2 Inhibitor Screening Kit); assay type: biochemical
T1 construct: purchased Beyotime S0168
T1 sequence (P35354 18-604): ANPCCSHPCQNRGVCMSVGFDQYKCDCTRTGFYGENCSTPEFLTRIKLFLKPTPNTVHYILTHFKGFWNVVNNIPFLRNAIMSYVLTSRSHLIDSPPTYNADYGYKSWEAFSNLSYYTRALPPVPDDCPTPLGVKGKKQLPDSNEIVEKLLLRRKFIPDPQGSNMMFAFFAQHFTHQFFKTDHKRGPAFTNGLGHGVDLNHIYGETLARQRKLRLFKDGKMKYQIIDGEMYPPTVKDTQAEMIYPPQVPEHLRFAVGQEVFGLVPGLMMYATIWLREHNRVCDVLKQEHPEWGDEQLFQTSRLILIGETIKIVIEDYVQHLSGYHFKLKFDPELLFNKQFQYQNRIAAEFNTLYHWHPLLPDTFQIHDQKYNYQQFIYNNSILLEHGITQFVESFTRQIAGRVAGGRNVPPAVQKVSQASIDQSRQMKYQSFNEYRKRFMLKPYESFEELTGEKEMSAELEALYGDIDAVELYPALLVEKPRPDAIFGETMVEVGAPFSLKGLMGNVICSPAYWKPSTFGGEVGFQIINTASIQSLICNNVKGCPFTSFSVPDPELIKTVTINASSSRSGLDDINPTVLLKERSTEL
Experimental: The COX-2 inhibitory activity of all the synthesized compounds was measured by the Human COX-2 Inhibitor Screening Kit (Beyotime, catalog no. S0168), and the specific steps were followed strictly according to the instructions. The lead compound N53 was also tested for reference purposes. The absorbance was measured at an excitation wavelength of 560 nm and an emission wavelength of 590 nm in a microplate reader. Each experimental condition was performed in triplicate and averaged.

HuH7 = assay: MTT anti-proliferation assay, HuH7; assay type: cell-based, human; settings: 72 h, read-out: IC50 ± SD HuH7

Cc1c(Cl)cccc1Nc1ccccc1C(=O)Nc1ccc(N2CCN(C)CC2)cc1 [Compound N53, 2-((3-chloro-2-methylphenyl)amino)-N-(4-(4-methylp-iperazin-1-yl)phenyl)benzamide]
IC50 (SK-Hep-1; 72 h): 5.66 ± 0.47 µM | IC50 (RKO): 6.29 ± 0.54 µM | Body weight versus control group (HT29 xenograft): no significant difference in body weight | Tumor inhibition rate (TGI) (HT29 xenograft): 34.7% | IC50 (HepG2; 72 h): 2.31 ± 0.09 µM | Inhibition rate (%) of COX-2 (2 μM) (Human COX-2): 3.6 ± 1.1% | IC50 (HuH7): 3.67 ± 0.38 µM

Cc1c(Cl)cccc1Nc1ccccc1C(=O)Nc1ccc(N2CCN(C)CC2)cc1 [N53·HCl, 4-(4-(2-((3-chloro-2-methylphenyl)amino)ben-zamido)phenyl)-1-methylpiperazin-1-ium]
IC50 (SK-Hep-1; Homo sapiens, SK-HEP1, 72 h): 8.18 µM | IC50 (RKO; Homo sapiens, RKO): 7.99 ± 0.85 µM | Body weight versus control group (HT29 xenograft): no significant difference in body weight | Tumor inhibition rate (TGI) (HT29 xenograft): 53.7% | IC50 (HepG2; Homo sapiens, HepG2, 72 h): 4.12 ± 0.39 µM | Inhibition rate (%) of COX-2 (2 μM) (Human COX-2): 32.5 ± 7.8% | IC50 (HuH7): 11.7 ± 0.75 µM
